Reference: the kinase profiling compilation of Christmann-Franck et al. (2016)

How the values were obtained:
Test in all cases: radiometric filter-binding kinase assay
[1] = test system: PAK2 (human), Q13177 [T402E]
[2] = target: MAP3K1 (human) (UniProt Q13233)
[3] = test system: AKT2 (human), P31751 [S474D]
[4] = target: MAPK13 (human) (UniProt O15264)
[5] = target: EEF2K (human) (UniProt O00418)
[6] = target: SRC (human) (UniProt P12931)
[7] = target: SYK (human) (UniProt P43405)
[8] = target: FLT1 (human) (UniProt P17948)
[9] = target: PKN2 (human) (UniProt Q16513)
[10] = target: GCK (human) (UniProt Q12851)
[11] = target: GSK3B (human) (UniProt P49841)
[12] = target: PAK6 (human) (UniProt Q9NQU5)
[13] = target: EPHB4 (human) (UniProt P54760)
[14] = target: MAP3K5 (human) (UniProt Q99683)
[15] = target: YES1 (human) (UniProt P07947)
[16] = target: FGFR1 (human) (UniProt P11362)
[17] = target: MELK (human) (UniProt Q14680)
[18] = target: CHEK1 (human) (UniProt O14757)
[19] = target: MARK4 (human) (UniProt Q96L34)
[20] = target: MAPK10 (human) (UniProt P53779)
[21] = target: IGF1R (human) (UniProt P08069)
[22] = target: PRKCZ (human) (UniProt Q05513)
[23] = target: CSNK1D (human) (UniProt P48730)
[24] = target: HIPK1 (human) (UniProt Q86Z02)
[25] = target: EPHB1 (human) (UniProt P54762)
[26] = target: TTK (human) (UniProt P33981)
[27] = target: MAP3K9 (human) (UniProt P80192)
[28] = target: MYLK (human) (UniProt Q15746)
[29] = target: MAPK9 (human) (UniProt P45984)
[30] = target: STK11 CAB39 STRADA (human) (UniProt Q9Y376+Q7RTN6+Q15831)
[31] = target: HIPK2 (human) (UniProt Q9H2X6)
[32] = target: AURKA (human) (UniProt O14965)
[33] = target: MAPK1 (human) (UniProt P28482)
[34] = target: AURKB (human) (UniProt Q96GD4)
[35] = target: MAP2K2 (human) (UniProt P36507)
[36] = target: TAOK1 (human) (UniProt Q7L7X3)

Sequence of MAPK13 (human) (O15264 whole entry, looked up): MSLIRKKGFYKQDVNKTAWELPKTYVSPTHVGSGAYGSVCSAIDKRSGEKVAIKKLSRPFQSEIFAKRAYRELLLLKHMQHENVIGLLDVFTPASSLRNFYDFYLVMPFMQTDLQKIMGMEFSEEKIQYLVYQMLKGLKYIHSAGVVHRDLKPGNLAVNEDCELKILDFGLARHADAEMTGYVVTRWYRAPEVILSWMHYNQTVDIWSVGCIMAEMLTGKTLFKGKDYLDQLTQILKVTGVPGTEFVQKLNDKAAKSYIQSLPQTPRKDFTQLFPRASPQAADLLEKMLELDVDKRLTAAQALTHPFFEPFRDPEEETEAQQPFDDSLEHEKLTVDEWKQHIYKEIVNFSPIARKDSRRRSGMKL
Sequence of MAP3K5 (human) (Q99683 whole entry, looked up): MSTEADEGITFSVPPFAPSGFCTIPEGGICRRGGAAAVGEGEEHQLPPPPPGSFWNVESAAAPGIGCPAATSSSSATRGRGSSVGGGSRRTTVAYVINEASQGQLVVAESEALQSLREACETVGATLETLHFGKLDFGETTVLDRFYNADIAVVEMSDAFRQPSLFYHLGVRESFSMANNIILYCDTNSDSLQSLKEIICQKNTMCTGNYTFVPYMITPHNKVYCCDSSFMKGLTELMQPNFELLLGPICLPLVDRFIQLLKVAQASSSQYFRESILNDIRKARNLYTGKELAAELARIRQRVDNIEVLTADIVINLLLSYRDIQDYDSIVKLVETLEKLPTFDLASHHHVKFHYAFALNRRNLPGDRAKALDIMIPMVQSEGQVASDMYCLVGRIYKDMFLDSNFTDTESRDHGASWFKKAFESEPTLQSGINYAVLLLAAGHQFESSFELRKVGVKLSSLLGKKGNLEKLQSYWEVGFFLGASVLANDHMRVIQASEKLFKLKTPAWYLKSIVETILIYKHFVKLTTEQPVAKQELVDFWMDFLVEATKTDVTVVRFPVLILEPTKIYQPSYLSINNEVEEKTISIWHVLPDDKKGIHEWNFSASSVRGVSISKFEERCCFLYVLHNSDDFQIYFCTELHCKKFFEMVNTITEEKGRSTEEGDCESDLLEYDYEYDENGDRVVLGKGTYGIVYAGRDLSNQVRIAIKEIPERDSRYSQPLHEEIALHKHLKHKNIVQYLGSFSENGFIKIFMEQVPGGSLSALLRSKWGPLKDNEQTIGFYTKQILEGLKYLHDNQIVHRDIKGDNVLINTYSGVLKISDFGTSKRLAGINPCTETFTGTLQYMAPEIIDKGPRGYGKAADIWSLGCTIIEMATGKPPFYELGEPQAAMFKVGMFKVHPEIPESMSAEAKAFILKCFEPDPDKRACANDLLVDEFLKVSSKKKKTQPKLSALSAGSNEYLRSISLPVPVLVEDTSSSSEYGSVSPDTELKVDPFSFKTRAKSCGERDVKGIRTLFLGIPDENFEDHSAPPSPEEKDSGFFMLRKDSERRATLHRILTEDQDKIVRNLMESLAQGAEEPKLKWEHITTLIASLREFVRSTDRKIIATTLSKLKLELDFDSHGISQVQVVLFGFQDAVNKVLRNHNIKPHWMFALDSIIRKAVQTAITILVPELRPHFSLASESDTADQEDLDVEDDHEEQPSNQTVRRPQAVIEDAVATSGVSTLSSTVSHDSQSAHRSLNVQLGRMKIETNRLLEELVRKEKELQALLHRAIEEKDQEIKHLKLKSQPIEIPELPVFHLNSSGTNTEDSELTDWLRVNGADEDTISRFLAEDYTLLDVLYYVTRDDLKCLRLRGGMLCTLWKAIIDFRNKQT
Sequence of CSNK1D (human) (P48730 whole entry, looked up): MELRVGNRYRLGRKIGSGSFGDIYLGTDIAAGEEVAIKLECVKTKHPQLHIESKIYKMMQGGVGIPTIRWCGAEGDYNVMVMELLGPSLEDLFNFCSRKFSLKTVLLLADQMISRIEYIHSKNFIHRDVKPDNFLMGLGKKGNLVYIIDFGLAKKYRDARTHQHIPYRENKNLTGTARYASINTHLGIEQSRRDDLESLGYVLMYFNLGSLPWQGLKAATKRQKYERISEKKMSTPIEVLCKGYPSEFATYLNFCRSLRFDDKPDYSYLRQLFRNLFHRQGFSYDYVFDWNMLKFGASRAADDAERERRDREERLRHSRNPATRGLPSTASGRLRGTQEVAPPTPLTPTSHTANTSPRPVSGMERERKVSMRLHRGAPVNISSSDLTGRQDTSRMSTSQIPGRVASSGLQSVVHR
Sequence of PKN2 (human) (Q16513 whole entry, looked up): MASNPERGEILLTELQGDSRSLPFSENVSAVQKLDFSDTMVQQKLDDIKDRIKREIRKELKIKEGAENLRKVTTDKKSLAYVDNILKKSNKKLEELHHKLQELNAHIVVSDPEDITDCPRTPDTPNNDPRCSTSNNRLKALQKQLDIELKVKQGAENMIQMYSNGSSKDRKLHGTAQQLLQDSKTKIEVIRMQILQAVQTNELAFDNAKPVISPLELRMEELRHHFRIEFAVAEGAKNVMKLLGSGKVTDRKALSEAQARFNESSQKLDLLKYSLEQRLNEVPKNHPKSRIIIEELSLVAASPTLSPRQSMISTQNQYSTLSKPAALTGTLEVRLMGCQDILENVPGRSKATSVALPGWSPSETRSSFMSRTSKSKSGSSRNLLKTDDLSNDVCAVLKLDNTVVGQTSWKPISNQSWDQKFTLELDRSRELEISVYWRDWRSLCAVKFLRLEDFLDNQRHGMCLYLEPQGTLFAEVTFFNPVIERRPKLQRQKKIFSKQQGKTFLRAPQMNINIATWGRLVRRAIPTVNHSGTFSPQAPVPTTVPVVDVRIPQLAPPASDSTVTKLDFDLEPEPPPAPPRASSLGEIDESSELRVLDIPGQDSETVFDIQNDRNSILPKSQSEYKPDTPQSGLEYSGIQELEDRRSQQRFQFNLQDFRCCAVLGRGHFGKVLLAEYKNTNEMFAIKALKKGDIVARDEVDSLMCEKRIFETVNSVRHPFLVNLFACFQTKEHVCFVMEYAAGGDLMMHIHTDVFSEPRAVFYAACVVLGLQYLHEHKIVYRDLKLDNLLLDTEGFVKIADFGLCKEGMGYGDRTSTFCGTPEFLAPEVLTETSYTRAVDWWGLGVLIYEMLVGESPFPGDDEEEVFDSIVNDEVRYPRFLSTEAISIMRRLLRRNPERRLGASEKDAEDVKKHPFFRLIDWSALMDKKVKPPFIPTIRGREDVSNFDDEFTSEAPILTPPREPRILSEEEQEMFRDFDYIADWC
Sequence of GCK (human) (Q12851 whole entry, looked up): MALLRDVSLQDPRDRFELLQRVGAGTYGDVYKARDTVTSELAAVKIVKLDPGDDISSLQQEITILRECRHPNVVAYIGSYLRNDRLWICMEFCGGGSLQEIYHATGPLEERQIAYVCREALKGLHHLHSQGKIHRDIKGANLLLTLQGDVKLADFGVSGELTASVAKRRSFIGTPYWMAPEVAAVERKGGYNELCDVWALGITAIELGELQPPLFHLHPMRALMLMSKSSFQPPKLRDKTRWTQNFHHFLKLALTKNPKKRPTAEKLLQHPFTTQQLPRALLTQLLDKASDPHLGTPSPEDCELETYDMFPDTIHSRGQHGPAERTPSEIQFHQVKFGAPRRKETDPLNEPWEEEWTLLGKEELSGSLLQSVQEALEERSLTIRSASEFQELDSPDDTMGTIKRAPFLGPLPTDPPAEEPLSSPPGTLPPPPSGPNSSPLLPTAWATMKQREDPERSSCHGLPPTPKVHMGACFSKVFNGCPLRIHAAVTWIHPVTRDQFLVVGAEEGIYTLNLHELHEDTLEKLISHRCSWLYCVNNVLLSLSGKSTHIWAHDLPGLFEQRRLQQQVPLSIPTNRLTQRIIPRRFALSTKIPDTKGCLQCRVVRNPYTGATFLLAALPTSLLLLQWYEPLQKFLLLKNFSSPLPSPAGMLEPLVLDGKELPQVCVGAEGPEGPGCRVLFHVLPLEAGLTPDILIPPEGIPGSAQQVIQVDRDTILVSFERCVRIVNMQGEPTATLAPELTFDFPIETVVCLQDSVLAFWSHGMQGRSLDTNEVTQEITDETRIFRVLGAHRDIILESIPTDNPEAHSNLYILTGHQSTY
Sequence of MAP2K2 (human) (P36507 whole entry, looked up): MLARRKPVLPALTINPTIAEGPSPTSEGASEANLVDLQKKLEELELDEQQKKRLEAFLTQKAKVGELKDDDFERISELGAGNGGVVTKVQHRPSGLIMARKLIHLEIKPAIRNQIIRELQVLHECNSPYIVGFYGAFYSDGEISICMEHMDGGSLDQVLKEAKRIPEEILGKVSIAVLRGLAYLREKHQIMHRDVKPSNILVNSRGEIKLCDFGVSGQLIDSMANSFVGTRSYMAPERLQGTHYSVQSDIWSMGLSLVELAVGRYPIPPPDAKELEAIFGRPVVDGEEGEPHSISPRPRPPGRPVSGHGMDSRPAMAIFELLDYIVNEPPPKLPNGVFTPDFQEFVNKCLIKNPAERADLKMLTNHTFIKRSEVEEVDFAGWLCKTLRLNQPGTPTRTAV
Sequence of PRKCZ (human) (Q05513 whole entry, looked up): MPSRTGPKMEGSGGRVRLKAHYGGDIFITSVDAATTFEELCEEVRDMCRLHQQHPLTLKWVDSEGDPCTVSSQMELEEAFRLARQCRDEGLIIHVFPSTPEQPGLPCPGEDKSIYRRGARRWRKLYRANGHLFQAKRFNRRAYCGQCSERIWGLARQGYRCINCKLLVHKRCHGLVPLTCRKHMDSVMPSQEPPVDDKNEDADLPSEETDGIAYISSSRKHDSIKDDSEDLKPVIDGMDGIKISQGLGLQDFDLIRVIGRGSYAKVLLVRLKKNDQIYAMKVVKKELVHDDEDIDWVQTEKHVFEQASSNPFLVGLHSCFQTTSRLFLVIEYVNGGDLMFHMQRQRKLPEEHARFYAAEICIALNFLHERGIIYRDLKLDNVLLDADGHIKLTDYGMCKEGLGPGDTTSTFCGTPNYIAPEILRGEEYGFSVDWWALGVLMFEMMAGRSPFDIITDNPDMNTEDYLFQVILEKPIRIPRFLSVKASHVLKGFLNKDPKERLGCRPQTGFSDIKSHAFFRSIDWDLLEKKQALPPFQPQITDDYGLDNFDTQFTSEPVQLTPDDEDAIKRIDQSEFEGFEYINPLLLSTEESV

## NC(=O)c1cc(-c2ccnc(NC3CCCCC3)c2)nc(N2CCNCC2)c1
[1]; compound 0.1 µM
  residual activity: 105%
[1]; compound 1.0 µM
  residual activity: 93%
[1]; compound 10.0 µM
  residual activity: 57%
[2]; compound 0.1 µM
  residual activity: 115%
[2]; compound 10.0 µM
  residual activity: 102%
[3]; compound 0.1 µM
  residual activity: 97%
[3]; compound 1.0 µM
  residual activity: 57%
[3]; compound 10.0 µM
  residual activity: 3%
[4]; compound 0.1 µM
  residual activity: 89%
[4]; compound 1.0 µM
  residual activity: 93%
[4]; compound 10.0 µM
  residual activity: 50%
[5]; compound 0.1 µM
  residual activity: 105%
[5]; compound 1.0 µM
  residual activity: 111%
[5]; compound 10.0 µM
  residual activity: 87%
[6]; compound 0.1 µM
  residual activity: 106%
[6]; compound 1.0 µM
  residual activity: 90%
[6]; compound 10.0 µM
  residual activity: 66%
[7]; compound 0.1 µM
  residual activity: 90%
[7]; compound 1.0 µM
  residual activity: 104%
[7]; compound 10.0 µM
  residual activity: 92%
[8]; compound 0.1 µM
  residual activity: 95%
[8]; compound 1.0 µM
  residual activity: 88%
[8]; compound 10.0 µM
  residual activity: 68%
[9]; compound 0.1 µM
  residual activity: 96%
[9]; compound 1.0 µM
  residual activity: 66%
[9]; compound 10.0 µM
  residual activity: 19%
[10]; compound 0.1 µM
  residual activity: 41%
[10]; compound 1.0 µM
  residual activity: 82%
[10]; compound 10.0 µM
  residual activity: 44%
[11]; compound 0.1 µM
  residual activity: 86%
[11]; compound 1.0 µM
  residual activity: 82%
[11]; compound 10.0 µM
  residual activity: 51%
[12]; compound 0.1 µM
  residual activity: 99%
[12]; compound 1.0 µM
  residual activity: 99%
[12]; compound 10.0 µM
  residual activity: 81%
[13]; compound 0.1 µM
  residual activity: 103%
[13]; compound 10.0 µM
  residual activity: 91%
[14]; compound 0.1 µM
  residual activity: 98%
[14]; compound 1.0 µM
  residual activity: 84%
[14]; compound 10.0 µM
  residual activity: 21%
[15]; compound 0.1 µM
  residual activity: 107%
[15]; compound 1.0 µM
  residual activity: 94%
[15]; compound 10.0 µM
  residual activity: 76%
[16]; compound 0.1 µM
  residual activity: 110%
[16]; compound 1.0 µM
  residual activity: 85%
[16]; compound 10.0 µM
  residual activity: 82%
[17]; compound 0.1 µM
  residual activity: 108%
[17]; compound 1.0 µM
  residual activity: 78%
[17]; compound 10.0 µM
  residual activity: 40%
[18]; compound 1.0 µM
  residual activity: 100%
[18]; compound 10.0 µM
  residual activity: 70%
[19]; compound 0.1 µM
  residual activity: 87%
[19]; compound 1.0 µM
  residual activity: 46%
[19]; compound 10.0 µM
  residual activity: 10%
[20]; compound 0.1 µM
  residual activity: 88%
[20]; compound 1.0 µM
  residual activity: 79%
[20]; compound 10.0 µM
  residual activity: 31%
[21]; compound 0.1 µM
  residual activity: 97%
[21]; compound 1.0 µM
  residual activity: 102%
[21]; compound 10.0 µM
  residual activity: 99%
[22]; compound 0.1 µM
  residual activity: 88%
[22]; compound 1.0 µM
  residual activity: 109%
[22]; compound 10.0 µM
  residual activity: 84%
[23]; compound 0.1 µM
  residual activity: 75%
[23]; compound 1.0 µM
  residual activity: 42%
[23]; compound 10.0 µM
  residual activity: 18%
[24]; compound 0.1 µM
  residual activity: 99%
[24]; compound 1.0 µM
  residual activity: 99%
[24]; compound 10.0 µM
  residual activity: 106%
[25]; compound 0.1 µM
  residual activity: 96%
[25]; compound 1.0 µM
  residual activity: 111%
[25]; compound 10.0 µM
  residual activity: 99%
[26]; compound 0.1 µM
  residual activity: 111%
[26]; compound 1.0 µM
  residual activity: 87%
[26]; compound 10.0 µM
  residual activity: 79%
[27]; compound 1.0 µM
  residual activity: 69%
[27]; compound 10.0 µM
  residual activity: 103%
[28]; compound 0.1 µM
  residual activity: 85%
[28]; compound 1.0 µM
  residual activity: 40%
[28]; compound 10.0 µM
  residual activity: 10%
[29]; compound 0.1 µM
  residual activity: 91%
[29]; compound 10.0 µM
  residual activity: 35%
[30]; compound 0.1 µM
  residual activity: 77%
[30]; compound 10.0 µM
  residual activity: 71%
[31]; compound 0.1 µM
  residual activity: 89%
[31]; compound 1.0 µM
  residual activity: 125%
[31]; compound 10.0 µM
  residual activity: 87%
[32]; compound 0.1 µM
  residual activity: 92%
[32]; compound 1.0 µM
  residual activity: 88%
[32]; compound 10.0 µM
  residual activity: 112%
[33]; compound 0.1 µM
  residual activity: 36%
[33]; compound 1.0 µM
  residual activity: 29%
[33]; compound 10.0 µM
  residual activity: 6%
[34]; compound 0.1 µM
  residual activity: 132%
[34]; compound 1.0 µM
  residual activity: 117%
[34]; compound 10.0 µM
  residual activity: 115%
[35]; compound 0.1 µM
  residual activity: 106%
[35]; compound 1.0 µM
  residual activity: 123%
[35]; compound 10.0 µM
  residual activity: 115%
[36]; compound 0.1 µM
  residual activity: 103%
[36]; compound 10.0 µM
  residual activity: 53%
